In ChEMBL document CHEMBL5233242, “Dihydrofolate reductase inhibitors for use as antimicrobial agents” (Eur J Med Chem, 2020):
≈ marks a conversion by molar mass, not a printed value. Where “and” joins values, the source holds several entries; their conditions need not be identical. Equal values may be shown once.

What was measured:
[1] = Inhibition of Staphylococcus aureus DHFR F98Y mutant
[2] = tested on: Mycobacterium tuberculosis; assay: Antibacterial activity against Mycobacterium tuberculosis H37Rv incubated for 7 days by resazurin dye based broth microdilution assay; format: functional; settings: 168 h, time 7 day
[3] = target: T1, Dihydrofolate reductase (Mycobacterium tuberculosis, UniProt P9WNX1)
T1 sequence (P9WNX1 whole entry): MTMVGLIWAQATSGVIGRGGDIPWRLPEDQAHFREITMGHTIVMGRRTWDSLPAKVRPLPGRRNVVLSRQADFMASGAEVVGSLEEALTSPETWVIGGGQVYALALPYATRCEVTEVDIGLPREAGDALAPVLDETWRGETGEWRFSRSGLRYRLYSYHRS
Description: Inhibition of Mycobacterium tuberculosis DHFR

[4] = tested on: Mycobacterium tuberculosis; assay: Antibacterial activity against Mycobacterium tuberculosis H37Rv; format: functional
[5] = tested on: Mycobacterium tuberculosis; assay: Antibacterial activity against Mycobacterium tuberculosis Erdman; format: functional
[6] = tested on: Escherichia coli; assay: Antibacterial activity against Escherichia coli ATCC 25922; format: functional
[7] = tested on: Escherichia coli; assay: Antibacterial activity against Escherichia coli NR698; format: functional
[8] = Cytotoxicity against african green monkey Vero cells; format: toxicity, cell-based; settings: chlorocebus sabaeus
[9] = target: T2, Dihydrofolate reductase (Staphylococcus aureus, UniProt P0A017); assay: Inhibition of wild type Staphylococcus aureus DHFR
[10] = tested on: Staphylococcus aureus; assay: Antibacterial activity against Staphylococcus aureus ATCC 43300 harboring wild type DHFR; format: functional
[11] = tested on: Staphylococcus aureus; assay: Antibacterial activity against Staphylococcus aureus harboring DHFR F98Y mutant; format: functional
[12] = target: T2, Dihydrofolate reductase; assay: Inhibition of Staphylococcus aureus DHFR
[13] = tested on: Mycobacterium tuberculosis; assay: Antibacterial activity against Mycobacterium tuberculosis H37Ra; format: functional
[14] = tested on: Staphylococcus aureus; assay: Antibacterial activity against Staphylococcus aureus RN4220 harboring wild type DHFR; format: functional
[15] = tested on: Staphylococcus aureus; assay: Antibacterial activity against methicillin resistant Staphylococcus aureus CCARM3167; format: functional
[16] = tested on: Staphylococcus aureus; assay: Antibacterial activity against Staphylococcus aureus ATCC 29213 harboring wild type DHFR; format: functional
[17] = Inhibition of Pseudomonas aeruginosa DHFR
[18] = tested on: Pseudomonas aeruginosa; assay: Antibacterial activity against Pseudomonas aeruginosa PA01; format: functional
[19] = tested on: Pseudomonas aeruginosa; assay: Synergistic antibacterial activity against Pseudomonas aeruginosa PA01 assessed as fractional inhibitory concentration index in presence of protocatechuic acid; format: functional
[20] = tested on: Pseudomonas aeruginosa; assay: Synergistic antibacterial activity against Pseudomonas aeruginosa PA01 assessed as fractional inhibitory concentration index in presence of gallic acid; format: functional
[21] = tested on: Pseudomonas aeruginosa; assay: Synergistic antibacterial activity against Pseudomonas aeruginosa PA01 assessed as fractional inhibitory concentration index in presence of quercetin; format: functional
[22] = tested on: Pseudomonas aeruginosa; assay: Synergistic antibacterial activity against Pseudomonas aeruginosa PA01 assessed as fractional inhibitory concentration index in presence of myricetin; format: functional

T2 sequence (P0A017 whole entry): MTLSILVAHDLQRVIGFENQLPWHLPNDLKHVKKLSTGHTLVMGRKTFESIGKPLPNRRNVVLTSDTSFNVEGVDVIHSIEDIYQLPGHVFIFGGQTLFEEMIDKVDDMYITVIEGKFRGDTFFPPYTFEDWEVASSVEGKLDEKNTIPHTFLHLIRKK

For `CCC[C@H]1c2ccccc2C=NN1C(=O)/C=C/c1cc(Cc2cnc(N)nc2N)cc(OC)c1OC`, the IC50 [1] was 0.0018 µM.
With `COc1ccc(-c2nc3ccccc3c(=O)[nH]2)cc1` the MIC [2] was 125 µM and 31.5 µg/mL and the IC50 [3] was 49.1 µM.
In the case of `O=c1[nH]c(=O)c2c(ncn2Cc2ccccc2)[nH]1`, the MIC [2] is reported as 130 µM and 31.5 µg/mL and the IC50 [3] is reported as 38.6 µM.
With `CCc1nc(N)nc(N)c1C#C[C@H](C)c1cc(OC)cc(-c2ccc(C(=O)O)cc2)c1` the MIC [4] was < 0.072 µM and the MIC [5] was < 0.072 µM.
Work on `CCc1nc(N)nc(N)c1C#C[C@@H](C)c1cc(OC)cc(-c2ccc(C(=O)O)cc2)c1` yielded an MIC [6] of 24 µM (≈ 10 µg/mL) and an MIC [7] of 0.0075 µM (≈ 0.00312 µg/mL).
Compound `CCc1nc(N)nc(N)c1C#CCc1cc(OC)cc(-c2ccc(C(=O)O)cc2)c1` has an MIC [4] of 0.311 µM (≈ 0.125 µg/mL) and an MIC [5] of 1.24 µM (≈ 0.5 µg/mL).
Work on `Nc1nc(N)nc(-c2ccc(OCc3ccc(Cl)cc3)cc2)n1` yielded an MIC [4] of 1.76 µM (≈ 0.577 µg/mL) and a CC50 [8] of 464 µM.
In the case of `CCCCc1nc(Cl)c(C2NC(=O)NC(C)=C2C(=O)Nc2ccc(F)cc2)[nH]1` (stereo not drawn), the MIC [4] is reported as 0.96 µM (≈ 0.39 µg/mL) and the IC50 [3] is reported as > 24.6 µM.
In the case of `CCc1nc(N)nc(N)c1C#C[C@H](C)c1cc(OC)cc(-c2ccncc2)c1`, the IC50 [9] is reported as 0.015 µM, the IC50 [1] is reported as 0.51 µM and the MIC [10] is reported as 0.874 µM (≈ 0.326 µg/mL). For the same compound, the MIC [11] was 14 µM (≈ 5.22 µg/mL).
`Cc1ccc(CN2C(=O)/C(=C3\SC(=S)N(C(=O)O)C3=O)c3ccccc32)cc1` showed an IC50 [12] of 0.46 µM.
Compound `COc1cc(-c2nc(N)nc(N)n2)ccc1OCc1ccc(F)cc1` has an MIC [4] of 3.39 µM (≈ 1.16 µg/mL) and a CC50 [8] of 360 µM.
In the case of `Nc1nc(N)c(-c2ccc(C(=O)Nc3cccc(OC(F)(F)F)c3)cc2)c(OCc2cncs2)n1`, the MIC [13] is reported as 12.4 µM and 6.25 µg/mL.
`COc1ccc(-c2nc(N)nc(N)n2)cc1Oc1ccc(Cl)cc1` gave an MIC [4] of 4.92 µM (≈ 1.69 µg/mL) and a CC50 [8] of 335 µM.
In the case of `Nc1nc(N)c2c(ccc3c2ccn3Cc2ccc3ccccc3c2)n1`, the MIC95 [4] is reported as 3.12 µM (≈ 1.06 µg/mL) and the IC50 [3] is reported as 0.00096 µM.
`CC[C@@H]1CC[C@H]2C(CC)(CC)[C@H](O)CC[C@]2(CC)[C@@]12Cc1c(O)cc3c(c1O2)COC3=O` gave an IC50 [9] of 41.5 µM, an MIC [14] of 72.3 µM (≈ 32 µg/mL) and an MIC [15] of 72.3 µM (≈ 32 µg/mL).
With `CCc1nc(N)nc(N)c1C#C[C@@H](C)c1cc(OC)cc(-c2ccncc2)c1` the IC50 [9] was 0.018 µM, the IC50 [1] was 0.111 µM and the MIC [10] was 0.11 µM (≈ 0.0411 µg/mL). The MIC [11] was 1.75 µM (≈ 0.653 µg/mL).
With `CCCc1cc(N)cc(N)c1Cc1cc(/C=C/C(=O)N2N=Cc3ccccc3C2C=C(C)C)c(OC)c(OC)c1` (stereo not drawn) the Ki [9] was 0.004 µM and the MIC [16] was 3.72 µM (≈ 2 µg/mL).
`Nc1nc(N)c2cc(C(F)(F)F)ccc2n1` gave an MIC99 [4] of 207 µM (≈ 47.2 µg/mL).
`O=C(O[C@@H]1Cc2c(O)cc(O)cc2O[C@@H]1c1cc(O)c(O)c(O)c1)c1cc(O)c(O)c(O)c1` [EPIGALOCATECHIN GALLATE] showed an MIC [4] of 4.25 µM (≈ 1.95 µg/mL) and an IC50 [3] of 10.9 µM.
For `O=C(O)c1cc(O)c(O)c(O)c1` [GALLIC ACID], the IC50 [17] was 9620 µM.
Work on `O=c1c(O)c(-c2cc(O)c(O)c(O)c2)oc2cc(O)cc(O)c12` [MYRICETIN] yielded an IC50 [17] of 520 µM and an MIC [18] of 1550 µM (≈ 493 µg/mL).
Compound `O=C(O)c1ccc(O)c(O)c1` [PROTOCATECHUIC ACID] has an IC50 [17] of 10700 µM.
`O=c1c(O)c(-c2ccc(O)c(O)c2)oc2cc(O)cc(O)c12` [QUERCETIN] showed an IC50 [17] of 595 µM and an MIC [18] of 1650 µM (≈ 499 µg/mL).
For `Cc1cc(NS(=O)(=O)c2ccc(N)cc2)no1` [SULFAMETHOXAZOLE], the IC50 [17] was 140 µM, the MIC [18] was 500 µM (≈ 127 µg/mL) and the “fractional inhibitory concentration index (FICI)” value [19] was 0.25. For the same compound, the “fractional inhibitory concentration index (FICI)” value [20] was 0.38, the “fractional inhibitory concentration index (FICI)” value [21] was 0.38 and the “fractional inhibitory concentration index (FICI)” value [22] was 0.38.
Compound `COc1cc(Cc2cnc(N)nc2N)cc(OC)c1OC` [TRIMETHOPRIM] has an IC50 [17] of 88.7 µM and an MIC [18] of 110 µM (≈ 31.9 µg/mL).
